From ChEMBL document CHEMBL1201862, “PubChem BioAssay data set” (2004)
Activity calls are given as the source filed them.

Tests used:
[1] = molecular target: T1, Ubiquitin-conjugating enzyme E2 N (Homo sapiens, UniProt P61088); format: functional
T1 sequence (P61088 whole entry): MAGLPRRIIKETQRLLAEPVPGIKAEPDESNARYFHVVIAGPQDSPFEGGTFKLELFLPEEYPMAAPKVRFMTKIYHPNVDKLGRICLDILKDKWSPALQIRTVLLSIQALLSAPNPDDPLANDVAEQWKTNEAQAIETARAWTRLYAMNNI

Bcl-2-related protein A1 = molecular target: T2, Bcl-2-related protein A1 (Mus musculus, UniProt Q07440); format: functional;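 also: confirmatory dose–response counterscreen on Bfl-1, used to check hits from a UBC13 polyubiquitin inhibitor campaign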
T2 sequence (Q07440 whole entry): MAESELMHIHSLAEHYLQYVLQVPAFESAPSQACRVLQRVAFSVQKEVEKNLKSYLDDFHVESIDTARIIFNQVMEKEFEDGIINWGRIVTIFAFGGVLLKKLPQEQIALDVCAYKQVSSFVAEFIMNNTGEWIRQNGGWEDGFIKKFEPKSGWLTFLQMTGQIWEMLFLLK

[2] = molecular target: T1, Ubiquitin-conjugating enzyme E2 N; format: functional; remark: listed apart in the source
[3] = molecular target: Alkaline phosphatase, placental type (Homo sapiens, UniProt P05187); assay: human placental alkaline phosphatase inhibition – biochemical, luminescence, confirmation (AID 1512); format: functional
Chain of Alkaline phosphatase, placental type (P05187 whole entry): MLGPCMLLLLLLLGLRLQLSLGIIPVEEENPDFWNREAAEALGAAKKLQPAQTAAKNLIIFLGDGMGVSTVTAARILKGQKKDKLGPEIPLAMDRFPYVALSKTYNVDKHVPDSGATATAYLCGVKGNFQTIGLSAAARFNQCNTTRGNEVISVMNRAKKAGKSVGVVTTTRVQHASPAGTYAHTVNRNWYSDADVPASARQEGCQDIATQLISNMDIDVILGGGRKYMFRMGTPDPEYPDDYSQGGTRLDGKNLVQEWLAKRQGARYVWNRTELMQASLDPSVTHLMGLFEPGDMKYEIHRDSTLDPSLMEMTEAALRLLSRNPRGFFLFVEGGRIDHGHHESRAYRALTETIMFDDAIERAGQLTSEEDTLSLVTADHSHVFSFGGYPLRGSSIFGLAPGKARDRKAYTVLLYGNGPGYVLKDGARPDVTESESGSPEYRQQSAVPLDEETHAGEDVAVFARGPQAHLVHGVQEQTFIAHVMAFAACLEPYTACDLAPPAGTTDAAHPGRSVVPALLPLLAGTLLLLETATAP

[4] = molecular target: T3, Alkaline phosphatase, tissue-nonspecific isozyme (Homo sapiens, UniProt P05186); assay: potency against alkaline phosphatase TNAP – biochemical, luminescent, dose response, SAR follow-up (AID 1056)
T3 sequence (P05186 whole entry): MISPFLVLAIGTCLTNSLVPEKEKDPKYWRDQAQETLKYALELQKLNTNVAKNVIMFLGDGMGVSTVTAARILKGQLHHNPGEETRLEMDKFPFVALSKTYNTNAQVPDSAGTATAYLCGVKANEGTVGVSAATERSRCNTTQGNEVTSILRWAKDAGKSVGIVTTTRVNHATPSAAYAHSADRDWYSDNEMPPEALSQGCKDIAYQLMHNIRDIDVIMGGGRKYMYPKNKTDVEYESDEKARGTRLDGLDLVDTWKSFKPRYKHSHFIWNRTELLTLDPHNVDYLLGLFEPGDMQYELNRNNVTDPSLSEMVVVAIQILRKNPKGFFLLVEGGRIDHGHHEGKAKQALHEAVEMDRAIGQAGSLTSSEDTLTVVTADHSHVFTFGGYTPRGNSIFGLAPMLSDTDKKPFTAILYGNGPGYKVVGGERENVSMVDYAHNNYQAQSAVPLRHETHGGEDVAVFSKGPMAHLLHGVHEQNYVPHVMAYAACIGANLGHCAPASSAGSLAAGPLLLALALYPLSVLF

[5] = molecular target: Glyceraldehyde-3-phosphate dehydrogenase (Homo sapiens, UniProt P04406)
Chain of Glyceraldehyde-3-phosphate dehydrogenase (P04406 whole entry): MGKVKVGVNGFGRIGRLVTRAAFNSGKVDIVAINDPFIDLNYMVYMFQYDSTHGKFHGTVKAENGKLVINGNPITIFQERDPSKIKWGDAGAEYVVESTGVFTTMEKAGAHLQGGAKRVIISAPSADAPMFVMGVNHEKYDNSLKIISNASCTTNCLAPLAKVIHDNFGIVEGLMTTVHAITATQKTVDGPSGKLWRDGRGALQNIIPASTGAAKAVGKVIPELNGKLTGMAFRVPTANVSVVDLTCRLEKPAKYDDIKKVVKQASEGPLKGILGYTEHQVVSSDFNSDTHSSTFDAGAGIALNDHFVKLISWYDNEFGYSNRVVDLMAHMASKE

[6] = molecular target: T4, Orexin/Hypocretin receptor type 1 (Homo sapiens, UniProt O43613); assay: (§1) Fluorescence-based cell-based high throughput dose response assay for antagonists of the orexin 1 receptor (OX1R; HCRTR1). [Related pubchem assays (depositor defined):AID434989, AID435008, AID463079, AID485270, AID492963, AID492964, AID492965, AID493232, AID504717, AID504718]; format: functional
T4 sequence (O43613 whole entry): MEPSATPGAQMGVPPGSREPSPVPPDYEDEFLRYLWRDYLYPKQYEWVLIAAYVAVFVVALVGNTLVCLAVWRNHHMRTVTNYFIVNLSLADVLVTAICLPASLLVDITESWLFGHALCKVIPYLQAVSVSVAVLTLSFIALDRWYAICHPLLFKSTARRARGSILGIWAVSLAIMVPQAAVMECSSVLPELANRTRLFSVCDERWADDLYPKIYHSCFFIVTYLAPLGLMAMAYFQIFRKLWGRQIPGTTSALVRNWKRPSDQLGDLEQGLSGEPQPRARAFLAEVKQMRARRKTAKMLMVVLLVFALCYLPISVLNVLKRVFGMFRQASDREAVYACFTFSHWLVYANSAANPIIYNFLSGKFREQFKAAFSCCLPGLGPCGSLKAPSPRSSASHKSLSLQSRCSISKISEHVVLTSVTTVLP

CHO-K1 = assay: (§2) Counterscreen for antagonists of the orexin 1 receptor (OX1R; HCRTR1): Homogeneous time resolved fluorescence (HTRF)-based cell-based dose response assay to identify antagonists of the parental CHO-K1 cell line. [Related pubchem assays (depositor defined):AID434989, AID435008, AID463079, AID485270, AID492963, AID492964, AID492965, AID493232, AID504699, AID504701]; format: functional; conditions: Cricetulus griseus
[7] = as §2, with “Fluorescence-based” for “Homogeneous time resolved fluorescence (HTRF)-based”, “cell-based high throughput” for “cell-based”, “CHO” for “CHO-K1”; format: functional
[8] = molecular target: T4, Orexin/Hypocretin receptor type 1; assay: as §1, with “Homogeneous Time Resolved Fluorescence (HTRF)-based” for “Fluorescence-based”; format: functional
Protein RecA = molecular target: T5, Protein RecA (Mycobacterium tuberculosis, UniProt P9WHJ3); assay: Fluorescence Cell-Free Homogeneous Dose Retest to Identify Inhibitors of RecA-Intein Splicing Activity. [Related pubchem assays (depositor defined):AID2097, AID2223, AID489010, AID492950]; format: functional
T5 sequence (P9WHJ3 whole entry): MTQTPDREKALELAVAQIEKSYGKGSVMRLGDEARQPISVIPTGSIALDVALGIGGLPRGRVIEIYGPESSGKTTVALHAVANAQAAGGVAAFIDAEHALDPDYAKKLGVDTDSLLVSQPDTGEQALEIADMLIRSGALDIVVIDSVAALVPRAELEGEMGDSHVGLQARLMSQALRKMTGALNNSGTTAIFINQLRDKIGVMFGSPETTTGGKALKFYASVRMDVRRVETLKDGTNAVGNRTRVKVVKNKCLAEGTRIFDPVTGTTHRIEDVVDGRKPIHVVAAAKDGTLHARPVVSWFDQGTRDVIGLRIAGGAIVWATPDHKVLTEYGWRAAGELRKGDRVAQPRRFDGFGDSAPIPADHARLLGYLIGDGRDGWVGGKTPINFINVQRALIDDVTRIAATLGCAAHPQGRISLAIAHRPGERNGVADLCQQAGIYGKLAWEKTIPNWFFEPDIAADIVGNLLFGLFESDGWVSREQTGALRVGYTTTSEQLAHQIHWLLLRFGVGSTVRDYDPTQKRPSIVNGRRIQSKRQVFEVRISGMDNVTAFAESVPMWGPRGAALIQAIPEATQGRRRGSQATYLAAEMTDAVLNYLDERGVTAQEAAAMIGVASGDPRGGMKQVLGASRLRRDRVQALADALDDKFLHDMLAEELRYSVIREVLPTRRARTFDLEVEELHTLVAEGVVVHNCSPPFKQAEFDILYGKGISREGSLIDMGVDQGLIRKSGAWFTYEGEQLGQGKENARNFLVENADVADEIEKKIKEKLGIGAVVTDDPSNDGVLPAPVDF

[9] = molecular target: T6, Replicative DNA helicase DnaB (Mycobacterium tuberculosis, UniProt P9WMR3); assay: DnaB intein splicing inhibitors, dose response, biochemical, cell-free fluorescence (AID 449749); format: functional
T6 sequence (P9WMR3 whole entry): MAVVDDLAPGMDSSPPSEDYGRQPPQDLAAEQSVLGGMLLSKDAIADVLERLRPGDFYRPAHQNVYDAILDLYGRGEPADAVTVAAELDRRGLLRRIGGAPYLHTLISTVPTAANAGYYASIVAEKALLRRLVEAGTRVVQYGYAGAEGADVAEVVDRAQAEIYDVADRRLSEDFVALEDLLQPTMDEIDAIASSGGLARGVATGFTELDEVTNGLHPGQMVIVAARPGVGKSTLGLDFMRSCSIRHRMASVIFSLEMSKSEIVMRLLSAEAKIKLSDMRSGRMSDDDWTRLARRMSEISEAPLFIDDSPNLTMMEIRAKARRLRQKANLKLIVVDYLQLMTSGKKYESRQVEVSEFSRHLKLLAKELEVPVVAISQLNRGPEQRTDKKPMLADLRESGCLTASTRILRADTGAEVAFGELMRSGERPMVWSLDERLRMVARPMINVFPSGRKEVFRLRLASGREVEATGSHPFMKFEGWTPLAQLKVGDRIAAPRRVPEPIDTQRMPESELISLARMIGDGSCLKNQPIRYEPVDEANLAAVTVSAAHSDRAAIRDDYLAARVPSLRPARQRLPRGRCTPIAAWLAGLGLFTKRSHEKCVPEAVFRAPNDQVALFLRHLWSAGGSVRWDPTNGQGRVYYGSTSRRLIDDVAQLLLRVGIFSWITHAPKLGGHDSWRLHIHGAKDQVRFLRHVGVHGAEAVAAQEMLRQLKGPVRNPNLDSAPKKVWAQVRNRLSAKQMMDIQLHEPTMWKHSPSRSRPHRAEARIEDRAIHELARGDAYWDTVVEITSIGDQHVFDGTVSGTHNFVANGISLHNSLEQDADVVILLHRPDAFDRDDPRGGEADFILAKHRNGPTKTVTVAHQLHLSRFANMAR

[10] = molecular target: T7, G-protein coupled receptor 35 (Homo sapiens, UniProt Q9HC97); assay: inhibition of zaprinast-stimulated GPR35 beta-arrestin translocation – imaging, U2OS, beta-arrestin-GFP, zaprinast agonist, primary screen (AID 2058); format: functional;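 also: antagonist potency meaning inhibition of agonist-induced arrestin redistribution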
T7 sequence (Q9HC97 whole entry): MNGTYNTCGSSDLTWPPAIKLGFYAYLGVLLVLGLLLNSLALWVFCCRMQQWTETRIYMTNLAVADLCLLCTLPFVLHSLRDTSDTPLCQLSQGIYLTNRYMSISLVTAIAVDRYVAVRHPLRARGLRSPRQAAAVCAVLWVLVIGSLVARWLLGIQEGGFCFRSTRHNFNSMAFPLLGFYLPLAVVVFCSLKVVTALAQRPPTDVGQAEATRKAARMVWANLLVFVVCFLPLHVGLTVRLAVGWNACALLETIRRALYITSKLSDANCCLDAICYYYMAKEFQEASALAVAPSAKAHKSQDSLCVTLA

[11] = molecular target: G-protein coupled receptor 55 (Homo sapiens, UniProt Q9Y2T6); assay: blockers of GPR55 signalling, imaged – imaging, image-based, counter-screen for GPR35 antagonist project, SAR follow-up (AID 2397); format: functional
Chain of G-protein coupled receptor 55 (Q9Y2T6 whole entry): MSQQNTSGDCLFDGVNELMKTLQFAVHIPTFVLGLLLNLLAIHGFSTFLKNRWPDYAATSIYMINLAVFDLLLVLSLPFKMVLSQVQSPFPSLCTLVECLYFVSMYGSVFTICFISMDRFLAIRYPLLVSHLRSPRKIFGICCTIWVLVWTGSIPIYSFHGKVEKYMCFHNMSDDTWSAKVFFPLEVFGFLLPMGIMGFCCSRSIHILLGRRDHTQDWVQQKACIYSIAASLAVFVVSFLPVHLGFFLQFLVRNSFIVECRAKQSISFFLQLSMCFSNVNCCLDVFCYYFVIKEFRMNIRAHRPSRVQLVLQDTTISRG

[12] = molecular target: T7, G-protein coupled receptor 35; assay: SAR Analysis for the identification of Selective Antagonists of ERK1/2 Activity in GPR35-Overexpressing U2OS Cells. [Related pubchem assays: 2079, 2058 ]; format: functional, cell-based
[13] = molecular target: Intestinal-type alkaline phosphatase (Homo sapiens, UniProt P09923); assay: human intestinal alkaline phosphatase activators, dose response, biochemical, luminescence, uHTS hits (AID 463120); format: functional
Chain of Intestinal-type alkaline phosphatase (P09923 whole entry): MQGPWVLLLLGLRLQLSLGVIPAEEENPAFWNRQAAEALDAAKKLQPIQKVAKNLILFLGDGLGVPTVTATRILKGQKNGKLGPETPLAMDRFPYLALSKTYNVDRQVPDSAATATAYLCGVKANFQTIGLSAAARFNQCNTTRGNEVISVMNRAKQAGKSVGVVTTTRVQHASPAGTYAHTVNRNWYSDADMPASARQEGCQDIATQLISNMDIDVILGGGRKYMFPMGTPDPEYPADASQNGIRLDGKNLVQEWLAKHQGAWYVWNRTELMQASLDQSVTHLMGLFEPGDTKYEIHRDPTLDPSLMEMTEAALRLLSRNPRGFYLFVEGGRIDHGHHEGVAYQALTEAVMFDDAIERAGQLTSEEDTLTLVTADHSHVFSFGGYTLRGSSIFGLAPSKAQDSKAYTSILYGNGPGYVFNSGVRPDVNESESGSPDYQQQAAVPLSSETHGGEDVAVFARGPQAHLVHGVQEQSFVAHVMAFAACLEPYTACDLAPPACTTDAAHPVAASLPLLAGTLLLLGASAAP

[14] = molecular target: Glucose-6-phosphate 1-dehydrogenase (Homo sapiens, UniProt P11413); assay: inhibition of Homo sapiens G6PD, dose series – biochemical, fluorescence, selectivity assay for P. falciparum G6PD inhibitor project, dose response (AID 504792); format: functional
Chain of Glucose-6-phosphate 1-dehydrogenase (P11413 whole entry): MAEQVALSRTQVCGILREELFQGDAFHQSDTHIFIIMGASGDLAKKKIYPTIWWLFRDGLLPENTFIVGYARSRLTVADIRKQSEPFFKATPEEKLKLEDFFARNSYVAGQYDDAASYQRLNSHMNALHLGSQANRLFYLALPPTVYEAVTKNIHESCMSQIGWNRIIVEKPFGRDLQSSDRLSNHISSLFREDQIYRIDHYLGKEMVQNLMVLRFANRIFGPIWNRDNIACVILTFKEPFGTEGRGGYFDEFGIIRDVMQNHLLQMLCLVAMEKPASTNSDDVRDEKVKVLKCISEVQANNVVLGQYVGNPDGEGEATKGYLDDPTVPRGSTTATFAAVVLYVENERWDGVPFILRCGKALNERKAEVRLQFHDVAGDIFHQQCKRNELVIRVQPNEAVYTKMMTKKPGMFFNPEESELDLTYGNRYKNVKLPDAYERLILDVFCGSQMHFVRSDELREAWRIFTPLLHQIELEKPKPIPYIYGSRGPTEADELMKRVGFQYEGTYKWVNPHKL

[15] = Luminescence Cell-Based Dose Retest to Confirm Inhibitors of Cancer Stem Cells. [Related pubchem assays (depositor defined):AID2717, AID2721]; format: functional; conditions: Homo sapiens
[16] = Intein inhibitors as potential Tuberculosis drugs, a cytotoxicity screen. [Related pubchem assays (depositor defined):AID2221, AID2223, AID434968, AID435010, AID449749, AID449750, AID489010]; format: functional
[17] = molecular target: T8, Heat shock factor protein 1 (Mus musculus, UniProt P38532); assay: enhancement of HSF1-driven luciferase signal – cell-based, NIH3T3, luminescence, dose retest, confirmation (AID 435004); format: functional;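 also: stress induced by proteasome inhibitor MG132 added 30 min after compound; luciferase reporter driven by HSF1 response element in NIH3T3 cells; actives raise luminescence as potentiators of the MG132 stress response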
T8 sequence (P38532 whole entry): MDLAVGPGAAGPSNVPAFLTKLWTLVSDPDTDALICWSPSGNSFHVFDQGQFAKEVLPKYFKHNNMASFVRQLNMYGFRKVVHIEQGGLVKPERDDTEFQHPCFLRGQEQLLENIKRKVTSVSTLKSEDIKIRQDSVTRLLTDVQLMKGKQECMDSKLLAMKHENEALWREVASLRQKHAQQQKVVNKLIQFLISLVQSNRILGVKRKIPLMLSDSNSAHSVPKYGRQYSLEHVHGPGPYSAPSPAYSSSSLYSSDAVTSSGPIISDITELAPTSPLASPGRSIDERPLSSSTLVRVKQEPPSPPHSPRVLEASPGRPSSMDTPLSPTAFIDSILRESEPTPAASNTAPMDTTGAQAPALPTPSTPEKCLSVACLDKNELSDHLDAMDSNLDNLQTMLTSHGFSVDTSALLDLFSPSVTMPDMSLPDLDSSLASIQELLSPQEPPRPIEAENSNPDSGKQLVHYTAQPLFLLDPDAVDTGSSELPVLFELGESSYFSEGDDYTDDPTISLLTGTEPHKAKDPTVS

[18] = molecular target: Voltage-dependent T-type calcium channel subunit alpha-1H (Homo sapiens, UniProt O95180); assay: inhibition of CACNA1H calcium flux – cell-based, SynthLib3 library, HEK293 Cav3.2, fluorescence (AID 493041); format: functional
Chain of Voltage-dependent T-type calcium channel subunit alpha-1H (O95180 whole entry): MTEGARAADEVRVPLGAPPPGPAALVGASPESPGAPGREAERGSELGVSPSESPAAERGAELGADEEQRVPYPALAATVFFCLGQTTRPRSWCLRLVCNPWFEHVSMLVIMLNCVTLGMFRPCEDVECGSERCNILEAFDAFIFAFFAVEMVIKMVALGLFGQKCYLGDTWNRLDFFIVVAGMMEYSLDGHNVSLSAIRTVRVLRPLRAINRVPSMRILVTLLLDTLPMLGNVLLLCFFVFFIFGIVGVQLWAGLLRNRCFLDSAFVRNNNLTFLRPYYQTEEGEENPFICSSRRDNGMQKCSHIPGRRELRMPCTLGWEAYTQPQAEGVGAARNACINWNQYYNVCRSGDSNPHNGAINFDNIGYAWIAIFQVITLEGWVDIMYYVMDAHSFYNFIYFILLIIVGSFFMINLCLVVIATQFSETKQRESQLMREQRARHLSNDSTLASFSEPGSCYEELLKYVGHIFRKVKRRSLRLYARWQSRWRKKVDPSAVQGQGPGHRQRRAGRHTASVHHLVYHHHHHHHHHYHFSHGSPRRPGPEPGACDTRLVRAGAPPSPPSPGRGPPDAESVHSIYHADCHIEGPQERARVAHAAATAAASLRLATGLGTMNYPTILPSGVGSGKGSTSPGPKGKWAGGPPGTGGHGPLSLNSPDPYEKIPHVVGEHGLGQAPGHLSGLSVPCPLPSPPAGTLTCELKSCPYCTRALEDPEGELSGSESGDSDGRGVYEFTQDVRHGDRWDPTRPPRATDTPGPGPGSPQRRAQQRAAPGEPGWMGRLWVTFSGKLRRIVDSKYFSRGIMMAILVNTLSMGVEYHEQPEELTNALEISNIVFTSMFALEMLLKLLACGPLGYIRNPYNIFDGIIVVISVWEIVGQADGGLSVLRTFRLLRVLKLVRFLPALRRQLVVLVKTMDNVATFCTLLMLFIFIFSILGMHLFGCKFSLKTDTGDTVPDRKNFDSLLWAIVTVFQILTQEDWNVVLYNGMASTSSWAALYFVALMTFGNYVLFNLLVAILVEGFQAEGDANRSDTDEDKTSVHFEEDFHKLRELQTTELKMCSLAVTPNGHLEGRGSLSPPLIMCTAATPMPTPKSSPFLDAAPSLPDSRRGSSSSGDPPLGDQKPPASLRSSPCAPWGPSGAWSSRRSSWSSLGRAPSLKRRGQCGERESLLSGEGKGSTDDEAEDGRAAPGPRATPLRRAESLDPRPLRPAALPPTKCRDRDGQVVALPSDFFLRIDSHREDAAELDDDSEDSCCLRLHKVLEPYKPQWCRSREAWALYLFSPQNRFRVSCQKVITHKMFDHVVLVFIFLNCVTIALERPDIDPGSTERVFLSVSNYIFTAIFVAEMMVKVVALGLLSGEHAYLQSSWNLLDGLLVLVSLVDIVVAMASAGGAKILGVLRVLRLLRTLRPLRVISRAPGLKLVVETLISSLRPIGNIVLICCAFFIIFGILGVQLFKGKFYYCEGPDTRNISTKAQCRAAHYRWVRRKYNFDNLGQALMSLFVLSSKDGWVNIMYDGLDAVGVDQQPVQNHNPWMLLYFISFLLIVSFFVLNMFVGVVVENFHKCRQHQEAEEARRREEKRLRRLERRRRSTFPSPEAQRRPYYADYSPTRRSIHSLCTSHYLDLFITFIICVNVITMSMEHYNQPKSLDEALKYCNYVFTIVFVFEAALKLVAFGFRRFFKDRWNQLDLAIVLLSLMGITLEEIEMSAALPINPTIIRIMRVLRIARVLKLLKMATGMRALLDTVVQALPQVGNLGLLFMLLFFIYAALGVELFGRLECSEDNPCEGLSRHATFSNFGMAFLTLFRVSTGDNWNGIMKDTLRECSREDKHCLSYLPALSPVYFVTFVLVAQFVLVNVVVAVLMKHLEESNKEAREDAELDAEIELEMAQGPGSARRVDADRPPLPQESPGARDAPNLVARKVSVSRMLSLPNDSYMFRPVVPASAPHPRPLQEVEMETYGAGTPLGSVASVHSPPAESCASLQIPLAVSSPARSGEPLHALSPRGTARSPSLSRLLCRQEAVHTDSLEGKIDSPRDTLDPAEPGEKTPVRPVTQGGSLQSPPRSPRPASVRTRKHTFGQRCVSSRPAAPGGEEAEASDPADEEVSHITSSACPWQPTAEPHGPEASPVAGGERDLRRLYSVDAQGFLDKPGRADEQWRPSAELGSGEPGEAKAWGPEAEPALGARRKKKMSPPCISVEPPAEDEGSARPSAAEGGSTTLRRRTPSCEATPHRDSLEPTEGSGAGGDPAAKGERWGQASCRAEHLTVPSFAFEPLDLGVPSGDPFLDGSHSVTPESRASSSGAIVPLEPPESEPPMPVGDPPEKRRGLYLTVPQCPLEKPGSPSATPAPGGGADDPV
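For CC50 in this document: cells exposed to compound for 72 hours before luminescence readout.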

COC(=O)c1c(-c2ccc(SC)cc2)sc2ccc(OC)cc12
IC50 [1]: > 20 µM (inactive)
IC50 (Bcl-2-related protein A1): > 20 µM (inactive)
IC50 [2]: 18.9 µM (active)

CC1(C)CC(=O)c2c(n[nH]c2Cc2ccccc2)C1
IC50 [3]: > 100 µM (inactive)
IC50 [4]: 1.24 µM (active)
IC50 [5]: > 100 µM (not active)

Cc1ccc(/C=C2\Sc3ccccc3C2=O)s1
IC50 [6]: 22.5 µM (inactive)
IC50 (CHO-K1): > 66.2 µM (inactive)
IC50 [7]: > 49.7 µM (inactive)
IC50 [8]: 23.1 µM (inactive)
EC50 (Protein RecA): 4.87 µM (active)
AC50 [9]: 11.8 µM (active)

O=C(CCCN1C(=O)S/C(=C\C=C\c2ccccc2)C1=O)Nc1ccc(C(=O)O)cc1
IC50 [10]: 1.26 µM (active)
IC50 [11]: 12.9 µM (inactive)
IC50 [12]: 9.54 µM (active)
EC50 (Protein RecA): 51.2 µM (active)
AC50 [9]: 39.2 µM (active)

Cc1ccc(NC(=O)C2CC(=O)Nc3nc4ccccc4n32)c(C)c1 (configuration not stated)
EC50 [13]: 34.5 µM (active)

NCCNc1ccc(C(=O)N2c3ccccc3Sc3ccccc32)cc1[N+](=O)[O-]
IC50 [1]: 10.9 µM (active)
IC50 (Bcl-2-related protein A1): > 20 µM (inactive)
IC50 [14]: > 80 µM (inactive)
AC50 [15]: 6.81 µM (active)
IC50 [2]: 9.58 µM (active)

Cc1ccc(Sc2ccc(NC(=O)CCl)cc2)c(C)c1
CC50 [16]: 9.81 µM (active)
EC50 [17]: 9.67 µM (active)
EC50 (Protein RecA): 0.718 µM (active)
AC50 [9]: 2.5 µM (active)

N#Cc1ccc(-n2c(-c3ccccc3)nnc2-c2ccccc2)cc1C#N
CC50 [16]: > 40 µM (active)
EC50 (Protein RecA): 3.36 µM (active)
AC50 [9]: 3.83 µM (active)

CCCN1C[C@@H]2C(CNC(=O)c3cc(Cl)cc(Cl)c3)[C@@H]2C1 (some centres not stated)
EC50 [18]: 10 µM (active)

CC(Cc1nnc(NC(=O)COc2ccc(F)cc2Cl)o1)CC(C)(C)C (configuration not stated)
EC50 [18]: 1.2 µM (active)
